Results from patent US20220242863A1, “COMPOUNDS FOR TREATMENT OF EYE DISORDERS” (SINOPSEE THERAPEUTICS, priority 2019, published 2022).
Where two headings read alike, the source gives them in different places.

What was measured:
[1] = tested on: BA/F3 cells expressing FIt3; test: Cell viability by MTS assay (MTS Assay 2); assay type: cell-based; conditions: Mus musculus, BaF3, concentration required to reduce cell viability to 50%, 20-48 hrs
Description: (§1) The effect of the compounds on cell viability were determined using MTS assay. MTS Cell Proliferation Assay Kit is a colorimetric method for sensitive quantification of viable cells in proliferation and cytotoxicity assay. The method is based on the reduction of MTS tetrazolium compound by viable cells to generate a colored formazan product that is soluble in cell culture media. BA/F3 cells expressing the receptor tyrosine kinase (either PDGFR [MTS Assay 1] or FIt3 [MTS Assay 2]) were cultured in standard culture conditions in a 96-well microtiter plate (final volume of 200 μl/well) in the absence or presence of the compound to be tested and were incubated for 20-48 hrs. MTS Reagent (20 μl/well) was added into each well & incubated for 0.5-4 hours at 37° C. in standard culture conditions. Absorbance at 490 nm was recorded using a plate reader.
(§2) Results are shown in FIGS. 2 and 3 and Table 2 (where IC50 indicates the concentration of compound required to reduce cell viability to 50%).
In Table 3: • L represents an IC50 of less than 500 nM • M represents an IC50 of between 500 nM and 5000 nM • H represents an IC50 of more than 5000 nM • For the MTS Assay, the result indicates the concentration of compound required to reduce cell viability to 50%.

[2] = molecular target: CDK8 (Homo sapiens, UniProt P49336); test: In vitro kinase assay ([γ-33P]-ATP); assay type: biochemical; conditions: ATP at apparent Km of the kinase
CDK8, sequence (P49336 whole entry, species assumed, the tested form may be a part): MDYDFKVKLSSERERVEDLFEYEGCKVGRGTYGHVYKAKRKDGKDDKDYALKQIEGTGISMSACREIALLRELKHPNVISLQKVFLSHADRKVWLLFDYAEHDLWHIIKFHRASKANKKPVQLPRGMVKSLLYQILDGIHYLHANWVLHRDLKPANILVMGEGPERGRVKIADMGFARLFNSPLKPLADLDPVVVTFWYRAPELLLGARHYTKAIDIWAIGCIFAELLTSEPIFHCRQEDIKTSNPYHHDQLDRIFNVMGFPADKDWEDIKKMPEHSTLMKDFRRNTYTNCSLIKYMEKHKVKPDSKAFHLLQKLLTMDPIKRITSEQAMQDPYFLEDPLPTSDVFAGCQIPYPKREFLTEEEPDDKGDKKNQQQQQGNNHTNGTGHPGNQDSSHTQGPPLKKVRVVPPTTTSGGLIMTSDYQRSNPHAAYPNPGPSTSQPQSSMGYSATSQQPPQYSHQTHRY
CDK8, sequence (P24863 whole entry partner, species assumed, the tested form may be a part): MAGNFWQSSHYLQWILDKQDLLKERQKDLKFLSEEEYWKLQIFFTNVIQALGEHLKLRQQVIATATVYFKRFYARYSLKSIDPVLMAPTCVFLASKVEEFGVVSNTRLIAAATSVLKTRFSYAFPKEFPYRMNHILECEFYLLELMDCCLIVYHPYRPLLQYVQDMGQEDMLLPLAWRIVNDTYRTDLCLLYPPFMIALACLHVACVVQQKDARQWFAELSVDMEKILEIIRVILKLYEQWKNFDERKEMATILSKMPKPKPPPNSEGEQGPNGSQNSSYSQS
Description: (§3) To determine the inhibitory activity of compounds, in vitro kinase assays were performed on respective enzymes purified from Sf9 insect cells or E. coli as recombinant GST-fusion proteins or His-tagged proteins.

[3] = molecular target: CDK19 (Homo sapiens, UniProt Q9BWU1); test: In vitro kinase assay ([γ-33P]-ATP); assay type: biochemical; conditions: ATP at apparent Km of the kinase
CDK19, sequence (Q9BWU1 whole entry, species assumed): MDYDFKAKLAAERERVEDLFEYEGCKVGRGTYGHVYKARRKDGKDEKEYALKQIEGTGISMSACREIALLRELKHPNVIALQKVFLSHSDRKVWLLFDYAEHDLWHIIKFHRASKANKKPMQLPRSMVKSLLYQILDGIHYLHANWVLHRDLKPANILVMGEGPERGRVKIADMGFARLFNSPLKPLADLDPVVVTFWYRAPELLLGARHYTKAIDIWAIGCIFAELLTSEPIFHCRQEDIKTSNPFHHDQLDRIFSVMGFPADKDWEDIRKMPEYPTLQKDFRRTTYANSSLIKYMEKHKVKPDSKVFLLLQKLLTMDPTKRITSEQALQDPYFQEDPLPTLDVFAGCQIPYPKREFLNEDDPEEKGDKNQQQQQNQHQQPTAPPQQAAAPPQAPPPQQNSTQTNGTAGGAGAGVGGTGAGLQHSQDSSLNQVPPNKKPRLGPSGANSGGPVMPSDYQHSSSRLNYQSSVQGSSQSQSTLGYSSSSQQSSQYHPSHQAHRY
CDK19, sequence (P24863 whole entry partner, species assumed): as the sequence (P24863 whole entry partner, species assumed, the tested form may be a part) above
Description: as §3

[4] = molecular target: T1, PDGFRβ (Homo sapiens, UniProt P09619); test: In vitro kinase assay ([γ-33P]-ATP); assay type: biochemical; conditions: ATP at apparent Km of the kinase
T1 sequence (P09619 33-1106): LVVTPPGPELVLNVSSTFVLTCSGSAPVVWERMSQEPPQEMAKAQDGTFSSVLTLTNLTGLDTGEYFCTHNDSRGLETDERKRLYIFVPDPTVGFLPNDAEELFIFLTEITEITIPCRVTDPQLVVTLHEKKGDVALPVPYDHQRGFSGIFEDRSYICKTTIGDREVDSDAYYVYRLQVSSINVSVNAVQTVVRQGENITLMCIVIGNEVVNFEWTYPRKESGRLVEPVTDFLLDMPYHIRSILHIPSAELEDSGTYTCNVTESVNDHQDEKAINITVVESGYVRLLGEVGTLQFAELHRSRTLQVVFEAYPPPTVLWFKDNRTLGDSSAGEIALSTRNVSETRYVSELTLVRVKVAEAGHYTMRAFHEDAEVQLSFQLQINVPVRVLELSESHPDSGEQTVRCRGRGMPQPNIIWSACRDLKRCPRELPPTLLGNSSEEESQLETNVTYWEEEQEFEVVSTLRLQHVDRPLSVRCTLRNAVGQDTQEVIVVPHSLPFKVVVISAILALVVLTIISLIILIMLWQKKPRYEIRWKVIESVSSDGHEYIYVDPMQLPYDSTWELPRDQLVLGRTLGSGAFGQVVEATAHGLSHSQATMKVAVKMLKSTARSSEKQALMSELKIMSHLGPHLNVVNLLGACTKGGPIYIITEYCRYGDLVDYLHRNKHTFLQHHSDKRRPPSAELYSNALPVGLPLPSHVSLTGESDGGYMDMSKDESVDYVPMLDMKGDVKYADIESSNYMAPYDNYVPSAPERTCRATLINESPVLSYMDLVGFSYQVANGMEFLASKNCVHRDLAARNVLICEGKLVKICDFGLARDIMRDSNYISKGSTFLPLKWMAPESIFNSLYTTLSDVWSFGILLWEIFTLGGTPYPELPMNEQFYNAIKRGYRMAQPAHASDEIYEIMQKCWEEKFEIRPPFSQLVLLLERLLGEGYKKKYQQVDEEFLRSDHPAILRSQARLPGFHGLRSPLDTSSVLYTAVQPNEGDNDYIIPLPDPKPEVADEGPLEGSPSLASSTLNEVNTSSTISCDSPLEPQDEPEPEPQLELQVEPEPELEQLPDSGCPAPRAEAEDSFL
Description: as §3

[5] = molecular target: VEGFR-2 (Homo sapiens, UniProt P35968); test: In vitro kinase assay ([γ-33P]-ATP); assay type: biochemical; conditions: ATP at apparent Km of the kinase
VEGFR-2, sequence (P35968 20-1356): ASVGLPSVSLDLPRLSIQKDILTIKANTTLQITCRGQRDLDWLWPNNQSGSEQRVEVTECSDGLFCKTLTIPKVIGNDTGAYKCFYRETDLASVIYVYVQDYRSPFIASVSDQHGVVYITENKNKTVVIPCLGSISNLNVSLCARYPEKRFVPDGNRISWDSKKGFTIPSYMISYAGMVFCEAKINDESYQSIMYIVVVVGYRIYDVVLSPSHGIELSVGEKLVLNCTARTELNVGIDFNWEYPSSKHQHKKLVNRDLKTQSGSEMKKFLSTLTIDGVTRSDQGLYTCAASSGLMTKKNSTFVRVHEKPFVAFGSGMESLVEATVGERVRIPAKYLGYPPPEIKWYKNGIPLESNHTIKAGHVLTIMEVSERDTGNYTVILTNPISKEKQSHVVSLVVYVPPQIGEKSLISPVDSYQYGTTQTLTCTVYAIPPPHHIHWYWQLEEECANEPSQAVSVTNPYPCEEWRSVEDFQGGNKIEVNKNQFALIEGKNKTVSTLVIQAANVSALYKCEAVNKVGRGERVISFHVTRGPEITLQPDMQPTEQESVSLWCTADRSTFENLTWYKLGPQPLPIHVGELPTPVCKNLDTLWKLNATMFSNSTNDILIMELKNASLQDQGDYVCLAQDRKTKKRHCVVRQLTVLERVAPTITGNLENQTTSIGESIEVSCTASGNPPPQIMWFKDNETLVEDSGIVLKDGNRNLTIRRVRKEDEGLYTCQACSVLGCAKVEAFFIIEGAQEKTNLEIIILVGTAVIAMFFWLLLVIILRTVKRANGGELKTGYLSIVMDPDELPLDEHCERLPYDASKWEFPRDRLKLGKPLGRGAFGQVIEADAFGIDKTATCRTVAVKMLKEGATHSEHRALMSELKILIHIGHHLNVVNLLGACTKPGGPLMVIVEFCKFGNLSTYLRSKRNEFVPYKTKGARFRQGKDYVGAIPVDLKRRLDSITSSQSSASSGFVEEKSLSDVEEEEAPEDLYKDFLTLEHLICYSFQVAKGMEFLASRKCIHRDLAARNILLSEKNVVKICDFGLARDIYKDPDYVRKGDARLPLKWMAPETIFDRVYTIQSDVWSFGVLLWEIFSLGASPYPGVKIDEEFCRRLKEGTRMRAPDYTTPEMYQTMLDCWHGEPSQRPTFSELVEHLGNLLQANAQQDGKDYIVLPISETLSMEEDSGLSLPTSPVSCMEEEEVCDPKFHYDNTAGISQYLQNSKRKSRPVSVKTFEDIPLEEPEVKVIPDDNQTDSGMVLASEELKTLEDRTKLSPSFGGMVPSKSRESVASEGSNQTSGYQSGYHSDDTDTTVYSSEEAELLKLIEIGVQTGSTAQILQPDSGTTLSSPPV
Description: as §3

[6] = molecular target: PDGFR-α (Homo sapiens, UniProt P16234); test: In vitro kinase assay ([γ-33P]-ATP); assay type: biochemical; conditions: ATP at apparent Km of the kinase
PDGFR-α, sequence (P16234 24-1089): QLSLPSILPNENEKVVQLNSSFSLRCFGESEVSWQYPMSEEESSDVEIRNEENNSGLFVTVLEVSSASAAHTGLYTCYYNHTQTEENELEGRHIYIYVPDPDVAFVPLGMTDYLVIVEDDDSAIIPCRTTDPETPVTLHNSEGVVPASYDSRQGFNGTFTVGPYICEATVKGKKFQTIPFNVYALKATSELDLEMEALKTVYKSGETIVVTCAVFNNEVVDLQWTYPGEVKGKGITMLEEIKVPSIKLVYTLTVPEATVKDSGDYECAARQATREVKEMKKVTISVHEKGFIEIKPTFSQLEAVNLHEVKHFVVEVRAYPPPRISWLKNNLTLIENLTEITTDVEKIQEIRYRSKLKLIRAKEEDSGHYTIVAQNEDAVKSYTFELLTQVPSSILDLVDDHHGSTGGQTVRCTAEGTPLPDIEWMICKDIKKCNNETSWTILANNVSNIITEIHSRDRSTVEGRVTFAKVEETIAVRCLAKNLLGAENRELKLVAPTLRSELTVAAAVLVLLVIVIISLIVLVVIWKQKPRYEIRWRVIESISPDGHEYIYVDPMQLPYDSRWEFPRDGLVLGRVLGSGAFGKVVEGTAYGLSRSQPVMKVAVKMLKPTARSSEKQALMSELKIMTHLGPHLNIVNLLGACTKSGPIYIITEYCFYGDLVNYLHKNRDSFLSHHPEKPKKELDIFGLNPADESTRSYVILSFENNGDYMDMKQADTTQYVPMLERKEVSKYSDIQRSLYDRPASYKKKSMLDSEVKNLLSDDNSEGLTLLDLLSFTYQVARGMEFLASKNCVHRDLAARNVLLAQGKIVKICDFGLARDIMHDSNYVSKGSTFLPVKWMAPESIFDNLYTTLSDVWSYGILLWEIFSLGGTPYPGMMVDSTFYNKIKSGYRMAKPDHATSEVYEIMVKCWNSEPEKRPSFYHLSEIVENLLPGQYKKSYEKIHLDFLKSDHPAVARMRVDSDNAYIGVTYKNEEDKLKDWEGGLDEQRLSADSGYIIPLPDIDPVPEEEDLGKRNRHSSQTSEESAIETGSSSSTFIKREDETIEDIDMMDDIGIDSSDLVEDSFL
Description: as §3

[7] = molecular target: T2, Flt3 (Homo sapiens, UniProt P36888); test: In vitro kinase assay ([γ-33P]-ATP); assay type: biochemical; conditions: ATP at apparent Km of the kinase
T2 sequence (P36888 27-993): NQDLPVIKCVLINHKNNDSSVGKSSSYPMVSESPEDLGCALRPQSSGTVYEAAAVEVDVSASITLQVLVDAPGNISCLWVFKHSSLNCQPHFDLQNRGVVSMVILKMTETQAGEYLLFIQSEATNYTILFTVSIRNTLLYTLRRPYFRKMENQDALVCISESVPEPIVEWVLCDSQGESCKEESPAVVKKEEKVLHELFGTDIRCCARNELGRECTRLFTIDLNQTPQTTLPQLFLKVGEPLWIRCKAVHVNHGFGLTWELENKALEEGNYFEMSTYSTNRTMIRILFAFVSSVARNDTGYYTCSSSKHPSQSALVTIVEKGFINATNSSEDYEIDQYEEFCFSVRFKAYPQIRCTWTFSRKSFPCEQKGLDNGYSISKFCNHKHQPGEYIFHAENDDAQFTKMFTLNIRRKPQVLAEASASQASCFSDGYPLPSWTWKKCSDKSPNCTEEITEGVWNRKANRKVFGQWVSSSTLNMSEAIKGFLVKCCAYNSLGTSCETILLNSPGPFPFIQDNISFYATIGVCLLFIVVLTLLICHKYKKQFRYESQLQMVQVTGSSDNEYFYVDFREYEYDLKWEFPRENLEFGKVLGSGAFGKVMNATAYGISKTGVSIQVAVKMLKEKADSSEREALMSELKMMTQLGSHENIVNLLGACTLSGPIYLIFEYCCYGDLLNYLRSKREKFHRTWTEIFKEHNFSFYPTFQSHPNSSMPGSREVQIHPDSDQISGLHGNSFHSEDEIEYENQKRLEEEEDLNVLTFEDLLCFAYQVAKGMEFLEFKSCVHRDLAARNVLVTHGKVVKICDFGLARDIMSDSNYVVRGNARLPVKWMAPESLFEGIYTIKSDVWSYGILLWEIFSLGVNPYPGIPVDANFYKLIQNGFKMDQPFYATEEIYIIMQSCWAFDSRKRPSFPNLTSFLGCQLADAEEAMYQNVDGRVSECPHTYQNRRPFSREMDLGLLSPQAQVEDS
Description: as §3

[8] = molecular target: T1, PDGFRβ; test: Western blot of PDGFRβ autophosphorylation and Shp2 phosphorylation in HEK293 cell line model; assay type: cell-based; parameters: expressed in transfected cells; host or cells: HEK293; conditions: HEK293 cells expressing PDGFRβ, 20 ng/ml PDGF; FIG. 1
Description: Human Embryonic kidney cells (HEK293) were constructed to express human PDGFRWT under the control of constitutive CMV promoter. Cells were grown in the presence of 20 ng/ml PDGF (the ligand for the PDGFRβ) to activate the PDGFRβ. Different concentrations of the compounds of Examples 1 and 2 were added to study their effect on the PDGFRβ-mediated signaling. Autophosphorylation of PDGFRβ and Shp2 phosphorylation were monitored by Western blotting and were used as the markers for PDGFRβ signaling. β-Actin was used as an internal control.

[9] = tested on: BA/F3 cells expressing PDGFR; test: Cell viability by MTS assay (MTS Assay 1); assay type: cell-based; conditions: for Activity in MTS cell viability assay compared to imatinib and quizartinib controls: Ba/F3 cells expressing PDGFR, FIG. 2
Description: as §1, §2
For the MTS Assay, the result indicates the concentration of compound required to reduce cell viability to 50%.

[10] = Mus musculus, BaF3, concentration required to reduce cell viability to 50%, BA/F3 cells expressing PDGFR, 20-48 hrs, read-out: IC50 (nM) MTS Assay 1

IC50 [1]	IC50 [2]	IC50 [3]	IC50 [4]	IC50 [5]	IC50 [6]	IC50 [7]	IC50 [9, 10]	Structure (SMILES)	Inhibition of PDGFRβ signaling (PDGFRβ autophosphorylation, Shp2 phosphorylation) [8]	Activity in MTS cell viability assay compared to imatinib and quizartinib controls [9]	IC50 ([9]; Mus musculus, BaF3, read-out: IC50 (nM) MTS Assay 1)	IC50 ([9]; concentration required to reduce cell viability to 50%, BA/F3 cells expressing PDGFR, 20-48 hrs, read-out: IC50 (nM) MTS Assay 1)
								Cc1ccc(NC(=O)COc2ccc(-c3cnc4ccccn34)cn2)cc1C(F)(F)F [Example 2]	able to inhibit PDGFRβ signaling			
								Cc1cnc(NC(=O)COc2ccc(-c3cnc4cnccn34)cn2)cc1C(F)(F)F [Example 3]		improved activity when compared to the imatinib and quizartinib controls		
< 500 nM							500 to 5000 nM	Cn1nc(NC(=O)COc2ccc(-c3cnc4cnccn34)c(F)n2)cc1C(F)(F)F [Example 6]				
< 500 nM							< 500 nM	Cc1ccc(NC(=O)COc2ccc(-c3cnc4cnccn34)c(F)n2)cc1C(F)(F)F [Example 7]				
							< 500 nM	Cc1ccc(NC(=O)COc2ccc(-c3cnc4ccc(-c5ccc(C(=O)N6CCOCC6)cc5)cn34)cc2)cc1C(F)(F)F [Example 10]				
	> 5000 nM	> 5000 nM	> 5000 nM	> 5000 nM	> 5000 nM	> 5000 nM		O=C(Nc1cc(C(F)(F)F)c(Cl)cn1)C1(Oc2ccc(-c3cnc4cnccn34)cn2)CC1 [Example 12]				
	500 to 5000 nM	500 to 5000 nM	500 to 5000 nM	500 to 5000 nM	500 to 5000 nM	> 5000 nM		CC(Oc1ccc(-c2cnc3cnccn23)cn1)C(=O)Nc1cc(C(F)(F)F)c(Cl)cn1 (stereo not drawn) [Example 13]				
	500 to 5000 nM	500 to 5000 nM	> 5000 nM	> 5000 nM	> 5000 nM	> 5000 nM		Cc1ccc(NC(=O)c2ccc(Nc3cnc4cnccn34)cc2)cc1C(F)(F)F [Example 14]				
< 500 nM	< 500 nM	< 500 nM	< 500 nM	< 500 nM	< 500 nM	< 500 nM		Cc1ccc(NC(=O)CNc2ccc(-c3cnc4cnccn34)cc2)cc1C(F)(F)F [Example 15]				
	< 500 nM	< 500 nM	< 500 nM	< 500 nM	< 500 nM	< 500 nM		O=C(CNc1ccc(-c2cnc3cnccn23)cc1)Nc1cc(C(F)(F)F)c(Cl)cn1 [Example 16]				
	< 500 nM	< 500 nM	< 500 nM	< 500 nM	< 500 nM	< 500 nM		Cn1nc(NC(=O)CNc2ccc(-c3cnc4cnccn34)cc2)cc1C(F)(F)F [Example 17]				
	< 500 nM	< 500 nM	< 500 nM	< 500 nM	< 500 nM	< 500 nM		Cn1nc(NC(=O)CNc2ccc(-c3cnc4cnccn34)c(F)c2)cc1C(F)(F)F [Example 18]				
	< 500 nM	< 500 nM	< 500 nM	< 500 nM	< 500 nM	< 500 nM		Cn1nc(NC(=O)COc2ccc(-c3cnn4cccnc34)cc2)cc1C(F)(F)F [Example 19]				

Structure (SMILES)	IC50 [1]	IC50 [2]	IC50 [3]	IC50 [4]	IC50 [5]	IC50 [6]	IC50 [7]	IC50 [9, 10]	Inhibition of PDGFRβ signaling (PDGFRβ autophosphorylation, Shp2 phosphorylation) [8]	Activity in MTS cell viability assay compared to imatinib and quizartinib controls [9]	IC50 ([9]; Mus musculus, BaF3, read-out: IC50 (nM) MTS Assay 1)	IC50 ([9]; concentration required to reduce cell viability to 50%, BA/F3 cells expressing PDGFR, 20-48 hrs, read-out: IC50 (nM) MTS Assay 1)
Cn1nc(NC(=O)COc2ccc(-c3cnc4ccccn34)cn2)cc1C(F)(F)F [Example 1]	< 500 nM	< 500 nM	< 500 nM	< 500 nM	< 500 nM	< 500 nM	< 500 nM		able to inhibit PDGFRβ signaling	improved activity when compared to the imatinib and quizartinib controls	< 500 nM	
Cn1nc(NC(=O)COc2ccc(-c3cnc4cnccn34)cn2)cc1C(F)(F)F [Example 9]		< 500 nM	< 500 nM									< 500 nM
